Assay results as given in ChEMBL document CHEMBL1150571, “Hipposulfates A and B, new sesterterpene sulfates from an Okinawan sponge, Hippospongia cf. metachromia” (J Nat Prod, 2001).

Tests used:
Format in all cases: functional, cell-based
P388 = assay: Cytotoxicity against mouse P388 cells
A549 = assay: Cytotoxicity against human A549 cells
HT-29 = assay: Cytotoxicity against human HT-29 cells
SK-MEL-28 = assay: Cytotoxicity against human SK-MEL-28 cells

Measured: IC50

CC1=CC[C@H]2C(C)(C)CCC[C@]2(C)[C@H]1CC/C(=C\OS(=O)(=O)[O-])CCC/C(C)=C/Cc1cc(O)ccc1O.[Na+] [HIPPOSULFATE A]
2 µg/mL: all assays above
